We go through one compound from patent publication US20220193060A1, “Inhibition of IL-1 Induced Inflammation” (THIOLAB, LLC., priority 2019, published 2022).

The test concerns poison oak. In words: Case: topical CPDS for poison oak exposure. The test is classed as in vivo, human. How it is done:
An individual was exposed to poison oak on their left arm through physical contact. They developed a rash and other symptoms of inflammation such as redness, itching, burning sensation, and swelling. The individual was treated using topical application a cream containing 1% CPDS by weight. The cream was applied every two hours on the first day, and thereafter two to three times a day. The cream contained water, mineral oil, stearic acid, triethanolamine, propylene glycol, glyceryl stearate, stearyl alcohol, dirnethicone, isopropyl palmitate, cetyl alcohol, lactic acid, retinyl acetate, tocopheryl acetate, hydrolyzed collagen, fragrance, methylparaben, and O&C red #33. The individual was treated alternatively with 1% CPDS by weight in an ointment containing white petroleum and mineral oil.

`O=C(O)c1ccc(SSc2ccc(C(=O)O)cn2)nc1` [CPDS, 6,6′-dithiodinicotinic acid]: under “person, topical cream or ointment with 1% CPDS by weight”, the itching and burning result is “dissipated immediately”. For the same compound, for the setting “topical 1% CPDS by weight”, the recurrence of symptoms result was “did not recur”; the redness and swelling result is reported as “disappeared in about one week”; the “spread of rash to other parts of the body” value was “did not spread”.
